The results in this text go back to patent US20240218022A1, “ANTI-VISTA MACROCYCLIC PEPTIDES AND COMPOSITIONS” (BRISTOL-MYERS SQUIBB COMPANY, priority 2022, published 2024).

Positions of bridges follow the written chain, without caps; N, C: chain ends. Non-standard residues stand in square brackets, D forms with d. Residues, ends and D or L forms follow the SMILES beside them. Ahp(2) = CCCCC[C@H](N)C(=O)O; NMeNle = CCCC[C@H](NC)C(=O)O; NHexGly = CCCCCCNCC(=O)O; Nle = CCCC[C@H](N)C(=O)O

In the first assay the target is T1, mouse VISTA (mVISTA) (Mus musculus, UniProt Q9D659).
T1 construct: expressed in transfected cells; host or cells: Human embryonic kidney 293T cells
T1 sequence (Q9D659 33-308): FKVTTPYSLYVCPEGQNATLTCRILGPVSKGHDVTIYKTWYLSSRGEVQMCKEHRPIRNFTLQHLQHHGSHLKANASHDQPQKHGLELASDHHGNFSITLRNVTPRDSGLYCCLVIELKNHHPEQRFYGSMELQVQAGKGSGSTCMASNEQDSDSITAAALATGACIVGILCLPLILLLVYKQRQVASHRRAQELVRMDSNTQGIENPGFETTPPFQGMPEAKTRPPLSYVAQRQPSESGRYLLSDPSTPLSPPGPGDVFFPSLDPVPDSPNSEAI
Nature of the assay: Cell-Based Binding High-Content Assay For mVISTA (HC CBA mVISTA). The settings on record: 293T cells expressing mouse VISTA; competition with biotinylated peptide (2 nM); read-out: CBA mVISTA IC50. In outline:
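Competition of compound with a biotinylated peptide (final 2 nM, 30 min at RT) for binding to mVISTA on 293T cells, run under no-wash or wash (1 h compound preincubation then removal) formats. Readout by Alexa 647–streptavidin imaging on a high-content platform; four-parameter logistic fit gave IC50.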
As to `CCCCCCN1CC(=O)N[C@@H](Cc2ccc(O)cc2)C(=O)N[C@@H](CCCC)C(=O)N[C@@H](CC(=O)O)C(=O)N[C@@H](CCCNC(=N)N)C(=O)N(C)[C@@H](CCCC)C(=O)N[C@@H](CCCCC)C(=O)N2CCC[C@H]2C(=O)N[C@@H](C(C)C)C(=O)N[C@@H](CC(=O)O)C(=O)N[C@H](C(=O)N[C@@H](CC(=O)O)C(N)=O)CSCC(=O)N[C@@H](Cc2ccccc2)C(=O)N[C@@H](Cc2ccc(O)cc2)C(=O)N[C@@H](CC(=O)O)C1=O` [Example 1073] ({CH2CO}-FYD[NHexGly]Y[Nle]DR[NMeNle][Ahp(2)]PVDCD-NH2; thioether N-14), the IC50 is 0.0066 µM. For `CCCCCCN1CC(=O)N[C@@H](Cc2ccc(O)cc2)C(=O)N[C@@H](CCCCC)C(=O)N[C@@H](CC(=O)O)C(=O)N[C@@H](CCCNC(=N)N)C(=O)N(C)[C@@H](CCCC)C(=O)N[C@@H](CCCCC)C(=O)N2CCC[C@H]2C(=O)N[C@@H](C(C)C)C(=O)N[C@@H](CC(=O)O)C(=O)N[C@H](C(=O)N[C@@H](CC(=O)O)C(N)=O)CSCC(=O)N[C@@H](Cc2ccccc2)C(=O)N[C@@H](Cc2ccc(O)cc2)C(=O)N[C@@H](CC(=O)O)C1=O` [Example 1074] ({CH2CO}-FYD[NHexGly]Y[Ahp(2)]DR[NMeNle][Ahp(2)]PVDCD-NH2; thioether N-14), the IC50 worked out at 0.0097 µM. Turning to `CCCCCCN1CC(=O)N[C@@H](Cc2ccc(O)cc2)C(=O)N[C@@H](CCCC)C(=O)N[C@@H](CC(=O)O)C(=O)N[C@@H](CCCNC(=N)N)C(=O)N(C)[C@@H](CCCC)C(=O)N[C@@H](CCCCC)C(=O)N2CCC[C@H]2C(=O)N[C@@H](C(C)C)C(=O)N[C@@H](CC(=O)O)C(=O)N[C@H](C(=O)N[C@H](CC(=O)O)C(N)=O)CSCC(=O)N[C@@H](Cc2ccccc2)C(=O)N[C@@H](Cc2ccc(O)cc2)C(=O)N[C@@H](CC(=O)O)C1=O` [Example 1075] ({CH2CO}-FYD[NHexGly]Y[Nle]DR[NMeNle][Ahp(2)]PVDC[dD]-NH2; thioether N-14), the IC50 came out at 0.0191 µM. For the compound `CCCCCCN1CC(=O)N[C@@H](Cc2ccc(O)cc2)C(=O)N[C@@H](CCCCC)C(=O)N[C@@H](CC(=O)O)C(=O)N[C@@H](CCCNC(=N)N)C(=O)N(C)[C@@H](CCCC)C(=O)N[C@@H](CCCCC)C(=O)N2CCC[C@H]2C(=O)N[C@@H](C(C)C)C(=O)N[C@@H](CC(=O)O)C(=O)N[C@H](C(=O)N[C@H](CC(=O)O)C(N)=O)CSCC(=O)N[C@@H](Cc2ccccc2)C(=O)N[C@@H](Cc2ccc(O)cc2)C(=O)N[C@@H](CC(=O)O)C1=O` [Example 1076] ({CH2CO}-FYD[NHexGly]Y[Ahp(2)]DR[NMeNle][Ahp(2)]PVDC[dD]-NH2; thioether N-14), the IC50 was found to be 0.0215 µM.

`CCCCCCN1CC(=O)N[C@@H](Cc2ccc(O)cc2)C(=O)N[C@@H](CCCCC)C(=O)N[C@@H](CC(=O)O)C(=O)N[C@@H](CCCNC(=N)N)C(=O)N(C)[C@@H](CCCC)C(=O)N[C@@H](CCCCC)C(=O)N2CCC[C@H]2C(=O)N[C@@H](C(C)C)C(=O)N[C@@H](CC(=O)O)C(=O)N[C@H](C(=O)N[C@@H](CCC(=O)O)C(N)=O)CSCC(=O)N[C@@H](Cc2ccccc2)C(=O)N[C@@H](Cc2ccc(O)cc2)C(=O)N[C@@H](CC(=O)O)C1=O` [Example 1077] ({CH2CO}-FYD[NHexGly]Y[Ahp(2)]DR[NMeNle][Ahp(2)]PVDCE-NH2; thioether N-14): the IC50 amounted to 0.0147 µM. Still for that read-out and setting: as for `CCCCCCN1CC(=O)N[C@@H](Cc2ccc(O)cc2)C(=O)N[C@@H](CCCC)C(=O)N[C@@H](CC(=O)O)C(=O)N[C@@H](CCCNC(=N)N)C(=O)N(C)[C@@H](CCCC)C(=O)N[C@@H](CCCCC)C(=O)N2CCC[C@H]2C(=O)N[C@@H](C(C)C)C(=O)N[C@@H](CC(=O)O)C(=O)N[C@H](C(=O)N[C@@H](CCC(=O)O)C(N)=O)CSCC(=O)N[C@@H](Cc2ccccc2)C(=O)N[C@@H](Cc2ccc(O)cc2)C(=O)N[C@@H](CC(=O)O)C1=O` [Example 1078] ({CH2CO}-FYD[NHexGly]Y[Nle]DR[NMeNle][Ahp(2)]PVDCE-NH2; thioether N-14), the figure is 0.0177 µM. On the same count and under the same terms, next, `CCCCCCN1CC(=O)N[C@@H](Cc2ccc(O)cc2)C(=O)N[C@@H](CCCCC)C(=O)NCC(=O)N[C@@H](CCCNC(=N)N)C(=O)N(C)[C@@H](CCCC)C(=O)N[C@@H](CCCCC)C(=O)N2CCC[C@H]2C(=O)N[C@@H](C(C)C)C(=O)N[C@@H](CO)C(=O)N[C@H](C(=O)NCC(N)=O)CSCC(=O)N[C@@H](Cc2ccccc2)C(=O)N[C@@H](Cc2ccc(O)cc2)C(=O)N[C@@H](CC(=O)O)C1=O` [Example 1079] ({CH2CO}-FYD[NHexGly]Y[Ahp(2)]GR[NMeNle][Ahp(2)]PVSCG-NH2; thioether N-14): 0.0246 µM.

With `CCCCCCN1CC(=O)N[C@@H](Cc2ccc(O)cc2)C(=O)N[C@@H](CC(C)C)C(=O)NCC(=O)N[C@@H](CCCNC(=N)N)C(=O)N(C)[C@@H](CCCC)C(=O)N[C@@H](CCCCC)C(=O)N2CCC[C@H]2C(=O)N[C@@H](C(C)C)C(=O)N[C@@H](CO)C(=O)N[C@H](C(=O)NCC(=O)O)CSCC(=O)N[C@@H](Cc2ccccc2)C(=O)N[C@@H](Cc2ccc(O)cc2)C(=O)N[C@@H](CC(=O)O)C1=O` [Example 1080] ({CH2CO}-FYD[NHexGly]YLGR[NMeNle][Ahp(2)]PVSCG-OH; thioether N-14), the IC50 turned out to be 0.0186 µM.

The assay is the same for the next values; noted with them: 293T cells expressing mouse VISTA; competition with biotinylated peptide (2 nM); read-out: HC CBA mVISTA IC50.
For `CCCCCCN1CC(=O)N[C@@H](Cc2ccc(O)cc2)C(=O)N[C@@H](CC(C)C)C(=O)N[C@@H](CC(N)=O)C(=O)N[C@@H](CCCNC(=N)N)C(=O)N[C@@H](CC(C)C)C(=O)N[C@@H](CCCCC)C(=O)N2CCC[C@H]2C(=O)N[C@@H](C(C)C)C(=O)N[C@@H](C(C)C)C(=O)N[C@H](C(=O)NCC(=O)O)CSCC(=O)N[C@@H](Cc2ccccc2)C(=O)N[C@@H](Cc2ccc(O)cc2)C(=O)N[C@@H](CC(=O)O)C1=O` [Example 1066] ({CH2CO}-FYD[NHexGly]YLNRL[Ahp(2)]PVVCG-OH; thioether N-14), the 50% inhibitory concentration (IC50) came to 0.0024 µM. In the case of `CCCCCCN1CC(=O)N[C@@H](Cc2ccc(O)cc2)C(=O)N[C@@H](CCCC)C(=O)N[C@@H](CC(=O)O)C(=O)N[C@@H](CCCNC(=N)N)C(=O)N[C@@H](CC(C)C)C(=O)N[C@@H](CCCCC)C(=O)N2CCC[C@H]2C(=O)N[C@@H](C(C)C)C(=O)N[C@@H](Cc2c[nH]c3ccccc23)C(=O)N[C@H](C(=O)NCC(=O)O)CSCC(=O)N[C@@H](Cc2ccccc2)C(=O)N[C@@H](Cc2ccc(O)cc2)C(=O)N[C@@H](CC(=O)O)C1=O` [Example 1067] ({CH2CO}-FYD[NHexGly]Y[Nle]DRL[Ahp(2)]PVWCG-OH; thioether N-14), the IC50 is 0.0289 µM.

Take `CCCCCCN1CC(=O)N[C@@H](Cc2ccc(O)cc2)C(=O)N[C@@H](CC(C)C)C(=O)N[C@@H](CC(N)=O)C(=O)N[C@@H](CCCNC(=N)N)C(=O)N[C@@H](CC(C)C)C(=O)N[C@@H](CCCCC)C(=O)N2CCC[C@H]2C(=O)N[C@@H](C(C)C)C(=O)N[C@@H](Cc2c[nH]c3ccccc23)C(=O)N[C@H](C(=O)NCC(=O)O)CSCC(=O)N[C@@H](Cc2ccccc2)C(=O)N[C@@H](Cc2ccc(O)cc2)C(=O)N[C@@H](CC(=O)O)C1=O` [Example 1068] ({CH2CO}-FYD[NHexGly]YLNRL[Ahp(2)]PVWCG-OH; thioether N-14): the IC50 was determined as 0.0394 µM. As for `CCCCCCN1CC(=O)N[C@@H](Cc2ccc(O)cc2)C(=O)N[C@@H](CCCNC(=N)N)C(=O)N[C@@H](CC(N)=O)C(=O)N[C@@H](CCCNC(=N)N)C(=O)N[C@@H](CC(C)C)C(=O)N[C@@H](CCCCC)C(=O)N2CCC[C@H]2C(=O)N[C@@H](C(C)C)C(=O)N[C@@H](Cc2c[nH]c3ccccc23)C(=O)N[C@H](C(=O)NCC(=O)O)CSCC(=O)N[C@@H](Cc2ccccc2)C(=O)N[C@@H](Cc2ccc(O)cc2)C(=O)N[C@@H](CC(=O)O)C1=O` [Example 1069] ({CH2CO}-FYD[NHexGly]YRNRL[Ahp(2)]PVWCG-OH; thioether N-14), the IC50 is 0.0483 µM. On the same count and under the same terms, next, `CCCCCCN1CC(=O)N[C@@H](Cc2ccc(O)cc2)C(=O)N[C@@H](CCCC)C(=O)NCC(=O)N[C@@H](CCCNC(=N)N)C(=O)N[C@@H](CC(C)C)C(=O)N[C@@H](CCCCC)C(=O)N2CCC[C@H]2C(=O)N[C@@H](C(C)C)C(=O)N[C@@H](Cc2ccc(O)cc2)C(=O)N[C@H](C(=O)NCC(=O)O)CSCC(=O)N[C@@H](Cc2ccccc2)C(=O)N[C@@H](Cc2ccc(O)cc2)C(=O)N[C@@H](CC(=O)O)C1=O` [Example 1070] ({CH2CO}-FYD[NHexGly]Y[Nle]GRL[Ahp(2)]PVYCG-OH; thioether N-14): 0.0181 µM; `CCCCCCN1CC(=O)N[C@@H](Cc2ccc(O)cc2)C(=O)N[C@@H](CCCC)C(=O)N[C@@H](CC(=O)O)C(=O)N[C@@H](CCCNC(=N)N)C(=O)N[C@@H](CC(C)C)C(=O)N[C@@H](CCCCC)C(=O)N2CCC[C@H]2C(=O)N[C@@H](C(C)C)C(=O)N[C@@H](Cc2ccc(O)cc2)C(=O)N[C@H](C(=O)NCC(=O)O)CSCC(=O)N[C@@H](Cc2ccccc2)C(=O)N[C@@H](Cc2ccc(O)cc2)C(=O)N[C@@H](CC(=O)O)C1=O` [Example 1071] ({CH2CO}-FYD[NHexGly]Y[Nle]DRL[Ahp(2)]PVYCG-OH; thioether N-14): 0.0177 µM.

With `CCCCCCN1CC(=O)N[C@@H](Cc2ccc(O)cc2)C(=O)N[C@@H](CC(C)C)C(=O)N[C@@H](CC(N)=O)C(=O)N[C@@H](CCCNC(=N)N)C(=O)N[C@@H](CC(C)C)C(=O)N[C@@H](CCCCC)C(=O)N2CCC[C@H]2C(=O)N[C@@H](C(C)C)C(=O)N[C@@H](C(C)C)C(=O)N[C@H](C(=O)N[C@@H](CO)C(=O)O)CSCC(=O)N[C@@H](Cc2ccccc2)C(=O)N[C@@H](Cc2ccc(O)cc2)C(=O)N[C@@H](CC(=O)O)C1=O` [Example 1072] ({CH2CO}-FYD[NHexGly]YLNRL[Ahp(2)]PVVCS-OH; thioether N-14), the 50% inhibitory concentration (IC50) came out at 0.0058 µM.
